A word on the clearance: it is a measure of how efficiently the substance is removed, as volume per time. A higher clearance goes with a high capacity for elimination. A word on the bioavailability: it is the share of a dose that reaches the circulation, judged against a reference dose that is usually intravenous. What is called Papp A→B is how fast a substance crosses the layer from the apical side. A higher Papp A→B goes with fast passage.

From ChEMBL document CHEMBL3352169, “Fragment-based hit discovery and structure-based optimization of aminotriazoloquinazolines as novel Hsp90 inhibitors” (Bioorg Med Chem, 2014) come the findings set out here.

Each structure is given as a SMILES string.

Series [1] in a line: Clearance in mouse at 5 mg/kg, iv. The conditions noted are these: in vivo. On the set-up: dose 5 mg/kg, route intravenous. The series is classed as ADME, organism-based.
Series [2] is described as follows: Intrinsic clearance in human liver microsomes. In kind it is ADME. The note with it: read-out: CLH.
The nature of series [3]: Intrinsic clearance in rat liver microsomes. The series is classed as ADME. The conditions noted are these: read-out: CLH.
Series [4] in a line: Oral bioavailability in mouse at 5 mg/kg. In kind it is ADME, organism-based. The conditions noted are these: in vivo.
A short description of series [5]: Permeability across apical to basolateral side in human Caco2 cells. The conditions noted are these: Caco-2. In kind it is ADME, cell-based.

Consider `OCCCNc1ccc2c(c1)nc(-c1ccc3c(c1)OCO3)n1ncnc21`, for which the clearance in series [1] amounted to 132 mL/min/kg. Moreover, the CLint scaled in series [2] amounted to 29.2 mL/min/kg; in series [3], 600 mL/min/kg. In series [4], this compound had a bioavailability of 1.5%. In series [5], this compound returned an apical-to-basolateral permeability (Papp A→B) of 65.4 ×10⁻⁶ cm/s.
